Read-outs that look alike come from different tables or passages of the source.

As usually defined, the IC50 is the concentration that inhibits the measured activity by half.

The assay deals with T1, RNA editing ligase 1 (TbREL1) (Trypanosoma brucei, UniProt P86926).
T1 construct: gene REL1; recombinant full-length TbREL1, C-terminal TAP tag, Sf9 cells
T1 sequence (P86926 1-469): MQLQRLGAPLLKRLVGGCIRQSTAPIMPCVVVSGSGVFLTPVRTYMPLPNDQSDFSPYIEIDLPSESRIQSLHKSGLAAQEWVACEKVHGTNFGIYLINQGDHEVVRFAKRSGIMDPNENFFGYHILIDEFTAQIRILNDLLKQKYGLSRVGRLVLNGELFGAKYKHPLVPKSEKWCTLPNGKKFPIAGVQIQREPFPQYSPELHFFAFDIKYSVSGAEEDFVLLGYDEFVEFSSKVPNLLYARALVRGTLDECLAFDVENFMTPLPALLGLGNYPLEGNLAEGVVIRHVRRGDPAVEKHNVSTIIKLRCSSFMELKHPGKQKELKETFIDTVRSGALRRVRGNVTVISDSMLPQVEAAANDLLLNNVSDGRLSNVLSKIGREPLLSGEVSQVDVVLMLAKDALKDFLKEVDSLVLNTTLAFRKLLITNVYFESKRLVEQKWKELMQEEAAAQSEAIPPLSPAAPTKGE
In words: inhibition of TbREL1 adenylylation with [α-32P]ATP, SDS/PAGE and phosphorimaging, […] Triton X-100. The class given is biochemical.

With `O=C(Nc1ccc2c(O)c(/N=N/c3ccc4c(O)cc(S(=O)(=O)O)cc4c3)c(S(=O)(=O)O)cc2c1)c1ccccc1` [V1, (E)-7-benzamido-4-hydroxy-3-((5-hydroxy-7-sulfonaphthalen-2-yl)diazenyl)naphthalene-2-sulfonic acid], the IC50 (read-out: IC50) stood at 2160 ± 1200 nM.

As to `Nc1ccc2c(O)c(/N=N/c3ccc4c(O)cc(S(=O)(=O)O)cc4c3)c(S(=O)(=O)O)cc2c1` [V2, (E)-7-amino-4-hydroxy-3-((5-hydroxy-7-sulfonaphthalen-2-yl)diazenyl)naphthalene-2-sulfonic acid], the IC50 (read-out: IC50) amounted to 1530 ± 1170 nM.

`O=S(=O)(O)c1cc(O)c2ccc(Nc3ccc4c(O)cc(S(=O)(=O)O)cc4c3)cc2c1` [V3, Di-J acid]: the IC50 (read-out: IC50) came out at 8360 ± 1710 nM.

`O=S(=O)(O)c1cc(/N=N/c2c(O)ccc3ccccc23)c(O)c(/N=N/c2c(O)ccc3cc(S(=O)(=O)O)ccc23)c1` [V4, Mordant Black 25] registered an IC50 of 1590 ± 1100 nM.

For the origin of these results see publication PMC2927429, “Novel Naphthalene-Based Inhibitors of Trypanosoma brucei RNA Editing Ligase 1” (PLoS Neglected Tropical Diseases, 2010).
